Legend:
Experiment in all cases: relative viability (nuclei count vs DMSO), 5 days (fraction); higher = more cells survive
NCI-H1915 = tested on: NCI-H1915
In short: (§1)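 Each reported value is a median over duplicate plates. It expresses relative viability: treated-well nuclei count divided by vehicle-well nuclei count. Lung cancer cell lines in 1536-well plates were dosed by pin tool a day after seeding, alone with one drug or with a fixed anchor-drug dose plus five library-drug doses (not always all listed) in √10 steps, and nuclei were counted after 5 days.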

NCI-H661 = tested on: NCI-H661
In short: as §1

NCI-H1355 = tested on: NCI-H1355
In short: as §1

NCI-H3122 = tested on: NCI-H3122
In short: as §1

NCI-H1563 = tested on: NCI-H1563
In short: as §1

NCI-H322M = tested on: NCI-H322M
In short: as §1

SW 900 = tested on: SW 900
In short: as §1

NCI-H460 = tested on: NCI-H460
In short: as §1

NCI-H1755 = tested on: NCI-H1755
In short: as §1

LXF-289 = tested on: LXF-289
In short: as §1

NCI-H727 = tested on: NCI-H727
In short: as §1

CCN(CC)CCCCNc1ncc2cc(-c3cc(OC)cc(OC)c3)c(NC(=O)NC(C)(C)C)nc2n1 + COc1cccc2cc(-c3nc([C@H]4CC[C@H](C(=O)O)CC4)n4ncnc(N)c34)[nH]c12 [OSI-027] (partner 0.5 µM)
relative viability (NCI-H1915; first compound 0.01 µM): 0.377 | relative viability (NCI-H1915; first compound 0.03162 µM): 0.645 | relative viability (NCI-H1915; first compound 0.1 µM): 0.775 | relative viability (NCI-H1915; first compound 0.3162 µM): 0.721 | relative viability (NCI-H1915; first compound 1 µM): 0.643 | relative viability (NCI-H661; first compound 0.01 µM): 0.784 | relative viability (NCI-H661; first compound 0.03162 µM): 0.727 | relative viability (NCI-H661; first compound 0.1 µM): 0.779 | relative viability (NCI-H661; first compound 0.3162 µM): 0.743 | relative viability (NCI-H661; first compound 1 µM): 0.48 | relative viability (NCI-H1355; first compound 0.01 µM): 0.405 | relative viability (NCI-H1355; first compound 0.03162 µM): 0.404 | relative viability (NCI-H1355; first compound 0.1 µM): 0.417 | relative viability (NCI-H1355; first compound 0.3162 µM): 0.45 | relative viability (NCI-H1355; first compound 1 µM): 0.367 | relative viability (NCI-H3122; first compound 0.01 µM): 1.06 | relative viability (NCI-H3122; first compound 0.03162 µM): 1.02 | relative viability (NCI-H3122; first compound 0.1 µM): 1.15 | relative viability (NCI-H3122; first compound 0.3162 µM): 1.3 | relative viability (NCI-H3122; first compound 1 µM): 0.922 | relative viability (NCI-H1563; first compound 0.01 µM): 0.766 | relative viability (NCI-H1563; first compound 0.03162 µM): 0.723 | relative viability (NCI-H1563; first compound 0.1 µM): 0.835 | relative viability (NCI-H1563; first compound 0.3162 µM): 0.768 | relative viability (NCI-H1563; first compound 1 µM): 0.584 | relative viability (NCI-H322M; first compound 0.01 µM): 0.481 | relative viability (NCI-H322M; first compound 0.03162 µM): 0.525 | relative viability (NCI-H322M; first compound 0.1 µM): 0.531 | relative viability (NCI-H322M; first compound 0.3162 µM): 0.594 | relative viability (NCI-H322M; first compound 1 µM): 0.552 | relative viability (SW 900; first compound 0.01 µM): 0.657 | relative viability (SW 900; first compound 0.03162 µM): 0.592 | relative viability (SW 900; first compound 0.3162 µM): 0.634 | relative viability (SW 900; first compound 1 µM): 0.402 | relative viability (NCI-H460; first compound 0.01 µM): 0.879 | relative viability (NCI-H460; first compound 0.03162 µM): 0.677 | relative viability (NCI-H460; first compound 0.1 µM): 0.859 | relative viability (NCI-H460; first compound 0.3162 µM): 0.815 | relative viability (NCI-H460; first compound 1 µM): 0.291 | relative viability (NCI-H1755; first compound 0.01 µM): 0.625 | relative viability (NCI-H1755; first compound 0.03162 µM): 0.77 | relative viability (NCI-H1755; first compound 0.1 µM): 0.811 | relative viability (NCI-H1755; first compound 0.3162 µM): 0.799 | relative viability (NCI-H1755; first compound 1 µM): 0.707 | relative viability (LXF-289; first compound 0.01 µM): 0.825 | relative viability (LXF-289; first compound 0.03162 µM): 0.823 | relative viability (LXF-289; first compound 0.1 µM): 0.973 | relative viability (LXF-289; first compound 0.3162 µM): 0.812 | relative viability (LXF-289; first compound 1 µM): 0.715 | relative viability (NCI-H727; first compound 0.01 µM): 0.673 | relative viability (NCI-H727; first compound 0.03162 µM): 0.591 | relative viability (NCI-H727; first compound 0.1 µM): 0.623 | relative viability (NCI-H727; first compound 0.3162 µM): 0.842 | relative viability (NCI-H727; first compound 1 µM): 0.498

Source: the supplement of paper PMC10307832
